Assay results from ChEMBL document CHEMBL6083188, “Recent contributions of pyridazine as a privileged scaffold of anticancer agents in medicinal chemistry: An updated review” (Bioorg Med Chem, 2024).
In brackets after ≈: the same amount, converted by molar mass.

Tests used:
[1] = biological target: T1, Phosphatidylinositol 4,5-bisphosphate 3-kinase catalytic subunit delta isoform (Homo sapiens, UniProt O00329); test: Inhibition of PI3Kdelta (unknown origin)
T1 sequence (O00329 whole entry): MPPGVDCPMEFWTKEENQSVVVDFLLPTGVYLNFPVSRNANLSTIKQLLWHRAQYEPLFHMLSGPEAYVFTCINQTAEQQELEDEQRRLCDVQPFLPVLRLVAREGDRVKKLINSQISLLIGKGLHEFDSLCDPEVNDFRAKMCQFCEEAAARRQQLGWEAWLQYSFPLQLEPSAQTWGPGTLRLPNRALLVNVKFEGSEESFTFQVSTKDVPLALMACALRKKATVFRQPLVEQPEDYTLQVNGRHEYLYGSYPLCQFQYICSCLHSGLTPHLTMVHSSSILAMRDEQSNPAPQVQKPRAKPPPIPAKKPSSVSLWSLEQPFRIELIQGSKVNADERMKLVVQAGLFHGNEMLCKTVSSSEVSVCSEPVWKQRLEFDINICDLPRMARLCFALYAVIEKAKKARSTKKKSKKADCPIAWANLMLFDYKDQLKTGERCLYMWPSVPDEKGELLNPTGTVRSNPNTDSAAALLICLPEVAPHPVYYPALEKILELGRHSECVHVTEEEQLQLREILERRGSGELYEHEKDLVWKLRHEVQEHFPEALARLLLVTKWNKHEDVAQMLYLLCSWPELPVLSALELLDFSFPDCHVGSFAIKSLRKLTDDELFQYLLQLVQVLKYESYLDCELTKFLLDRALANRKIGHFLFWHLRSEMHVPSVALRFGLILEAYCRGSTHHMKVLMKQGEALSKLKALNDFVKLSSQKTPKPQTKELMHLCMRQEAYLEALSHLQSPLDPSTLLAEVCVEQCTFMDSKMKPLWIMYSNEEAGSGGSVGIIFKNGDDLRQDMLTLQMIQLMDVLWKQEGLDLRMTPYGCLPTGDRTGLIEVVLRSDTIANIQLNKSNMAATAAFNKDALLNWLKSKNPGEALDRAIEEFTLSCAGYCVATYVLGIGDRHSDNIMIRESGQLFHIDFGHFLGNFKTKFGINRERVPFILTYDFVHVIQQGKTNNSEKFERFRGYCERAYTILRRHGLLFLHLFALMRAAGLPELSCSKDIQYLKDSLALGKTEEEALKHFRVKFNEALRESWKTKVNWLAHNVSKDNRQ

[2] = biological target: Phosphatidylinositol 4,5-bisphosphate 3-kinase catalytic subunit beta isoform (Homo sapiens, UniProt P42338); test: Inhibition of PI3Kbeta (unknown origin)
SNB-75 = test: Antiproliferative activity against human SNB-75 cells assessed as reduction in cell growth incubated for 48 hrs by SRB assay; type: functional, cell-based; conditions: SNB-75, 48 h
[3] = biological target: Phosphatidylinositol 4,5-bisphosphate 3-kinase catalytic subunit alpha isoform (Homo sapiens, UniProt P42336); test: Inhibition of PI3Kalpha (unknown origin)
Phosphatidylinositol 4,5-bisphosphate 3-kinase catalytic subunit alpha isoform, sequence (P42336 whole entry, canonical isoform): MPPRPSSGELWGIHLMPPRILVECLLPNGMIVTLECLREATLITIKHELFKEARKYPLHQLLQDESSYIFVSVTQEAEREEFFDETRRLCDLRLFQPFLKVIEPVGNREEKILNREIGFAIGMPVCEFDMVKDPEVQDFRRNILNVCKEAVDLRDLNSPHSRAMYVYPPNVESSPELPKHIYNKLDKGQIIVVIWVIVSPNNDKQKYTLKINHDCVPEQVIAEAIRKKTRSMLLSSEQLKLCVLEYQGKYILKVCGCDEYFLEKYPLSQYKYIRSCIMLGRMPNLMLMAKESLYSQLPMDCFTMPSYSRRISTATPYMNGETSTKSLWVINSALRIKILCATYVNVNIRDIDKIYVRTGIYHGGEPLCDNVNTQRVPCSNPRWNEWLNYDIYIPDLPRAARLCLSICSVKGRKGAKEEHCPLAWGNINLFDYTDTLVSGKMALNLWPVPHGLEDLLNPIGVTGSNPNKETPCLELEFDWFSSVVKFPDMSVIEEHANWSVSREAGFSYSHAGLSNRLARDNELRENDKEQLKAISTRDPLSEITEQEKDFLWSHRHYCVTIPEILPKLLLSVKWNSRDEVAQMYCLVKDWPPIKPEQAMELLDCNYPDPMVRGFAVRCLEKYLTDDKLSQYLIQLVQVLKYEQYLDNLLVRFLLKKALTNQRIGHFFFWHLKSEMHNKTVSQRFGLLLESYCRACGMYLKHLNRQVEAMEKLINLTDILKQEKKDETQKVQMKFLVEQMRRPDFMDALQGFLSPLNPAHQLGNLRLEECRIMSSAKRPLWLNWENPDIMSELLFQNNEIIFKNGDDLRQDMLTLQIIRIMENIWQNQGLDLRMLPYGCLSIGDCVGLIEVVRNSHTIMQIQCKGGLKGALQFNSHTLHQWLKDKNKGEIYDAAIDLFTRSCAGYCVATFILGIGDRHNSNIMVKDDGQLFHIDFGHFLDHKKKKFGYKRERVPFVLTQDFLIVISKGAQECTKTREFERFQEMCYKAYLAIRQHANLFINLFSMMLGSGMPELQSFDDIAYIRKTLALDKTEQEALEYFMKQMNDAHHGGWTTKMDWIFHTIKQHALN

[4] = biological target: Phosphatidylinositol 4,5-bisphosphate 3-kinase catalytic subunit gamma isoform (Homo sapiens, UniProt P48736); test: Inhibition of PI3Kgamma (unknown origin)
Phosphatidylinositol 4,5-bisphosphate 3-kinase catalytic subunit gamma isoform, sequence (P48736 whole entry, canonical isoform): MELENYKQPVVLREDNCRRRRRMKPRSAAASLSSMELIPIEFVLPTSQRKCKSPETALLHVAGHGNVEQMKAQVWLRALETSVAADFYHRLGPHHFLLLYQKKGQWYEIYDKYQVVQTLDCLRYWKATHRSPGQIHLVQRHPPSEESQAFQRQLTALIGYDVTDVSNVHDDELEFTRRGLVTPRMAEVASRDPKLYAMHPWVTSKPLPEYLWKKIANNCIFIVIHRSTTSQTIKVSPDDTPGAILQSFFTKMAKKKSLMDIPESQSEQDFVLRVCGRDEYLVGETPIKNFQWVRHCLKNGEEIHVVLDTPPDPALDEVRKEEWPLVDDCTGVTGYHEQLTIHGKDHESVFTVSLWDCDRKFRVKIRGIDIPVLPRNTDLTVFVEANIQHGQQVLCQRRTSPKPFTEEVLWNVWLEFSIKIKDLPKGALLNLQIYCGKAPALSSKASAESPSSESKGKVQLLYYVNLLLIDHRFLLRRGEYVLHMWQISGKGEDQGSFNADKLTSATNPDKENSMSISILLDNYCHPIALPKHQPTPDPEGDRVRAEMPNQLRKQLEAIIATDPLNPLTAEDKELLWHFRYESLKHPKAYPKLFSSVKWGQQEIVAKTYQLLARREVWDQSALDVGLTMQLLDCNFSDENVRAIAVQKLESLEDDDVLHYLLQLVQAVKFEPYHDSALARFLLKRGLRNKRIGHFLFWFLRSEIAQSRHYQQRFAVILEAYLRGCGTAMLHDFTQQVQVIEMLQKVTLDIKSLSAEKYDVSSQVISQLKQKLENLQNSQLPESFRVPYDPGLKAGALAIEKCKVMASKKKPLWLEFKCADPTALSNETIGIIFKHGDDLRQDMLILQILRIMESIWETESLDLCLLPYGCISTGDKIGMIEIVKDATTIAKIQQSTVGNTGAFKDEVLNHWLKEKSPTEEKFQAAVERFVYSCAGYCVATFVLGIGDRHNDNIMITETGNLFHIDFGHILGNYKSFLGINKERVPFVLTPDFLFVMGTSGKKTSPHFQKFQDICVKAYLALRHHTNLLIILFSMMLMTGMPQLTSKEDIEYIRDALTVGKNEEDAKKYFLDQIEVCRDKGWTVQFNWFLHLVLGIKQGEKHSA

MGC-803 = test: Antitumor activity against human MGC-803 cells xenografted in nude mouse assessed as tumor inhibition at 20 mg/kg, ip administered once every two days for 21 days relative to control; type: functional; design: scale not given: the % may be the effect or the level left; conditions: time 21 day
PC-3 [5] = test: cells; conditions: Homo sapiens, PC-3, 72 h
Description: Cytotoxicity against human PC-3 cells assessed as inhibition of cell growth incubated for 72 hrs by MTT assay

MDA-MB-231 = test: cells; conditions: Homo sapiens
Description: Antiproliferative activity against human MDA-MB-231 cells assessed as reduction in cell viability

T47D = test: cells; conditions: Homo sapiens
Description: Antiproliferative activity against human T47D cells assessed as reduction in cell viability

HepG2 = test: Cytotoxicity against human HepG2 cells assessed as reduction in cell viability measured for 48 hrs by MTT assay; type: functional, cell-based; conditions: HepG2, 48 h
HCT-116 [6] = test: Cytotoxicity against human HCT-116 cells assessed as reduction in cell viability measured for 48 hrs by MTT assay; type: functional, cell-based; conditions: HCT-116, 48 h
MCF7 [7] = test: Cytotoxicity against human MCF7 cells assessed as reduction in cell viability measured for 48 hrs by MTT assay; type: functional, cell-based; conditions: MCF7, 48 h
PC-3 [8] = test: Cytotoxicity against human PC-3 cells assessed as reduction in cell viability measured for 48 hrs by MTT assay; type: functional, cell-based; conditions: PC-3, 48 h
[9] = biological target: Hepatocyte growth factor receptor (Homo sapiens, UniProt P08581); test: Inhibition of c-Met (unknown origin)
Hepatocyte growth factor receptor, sequence (P08581 whole entry): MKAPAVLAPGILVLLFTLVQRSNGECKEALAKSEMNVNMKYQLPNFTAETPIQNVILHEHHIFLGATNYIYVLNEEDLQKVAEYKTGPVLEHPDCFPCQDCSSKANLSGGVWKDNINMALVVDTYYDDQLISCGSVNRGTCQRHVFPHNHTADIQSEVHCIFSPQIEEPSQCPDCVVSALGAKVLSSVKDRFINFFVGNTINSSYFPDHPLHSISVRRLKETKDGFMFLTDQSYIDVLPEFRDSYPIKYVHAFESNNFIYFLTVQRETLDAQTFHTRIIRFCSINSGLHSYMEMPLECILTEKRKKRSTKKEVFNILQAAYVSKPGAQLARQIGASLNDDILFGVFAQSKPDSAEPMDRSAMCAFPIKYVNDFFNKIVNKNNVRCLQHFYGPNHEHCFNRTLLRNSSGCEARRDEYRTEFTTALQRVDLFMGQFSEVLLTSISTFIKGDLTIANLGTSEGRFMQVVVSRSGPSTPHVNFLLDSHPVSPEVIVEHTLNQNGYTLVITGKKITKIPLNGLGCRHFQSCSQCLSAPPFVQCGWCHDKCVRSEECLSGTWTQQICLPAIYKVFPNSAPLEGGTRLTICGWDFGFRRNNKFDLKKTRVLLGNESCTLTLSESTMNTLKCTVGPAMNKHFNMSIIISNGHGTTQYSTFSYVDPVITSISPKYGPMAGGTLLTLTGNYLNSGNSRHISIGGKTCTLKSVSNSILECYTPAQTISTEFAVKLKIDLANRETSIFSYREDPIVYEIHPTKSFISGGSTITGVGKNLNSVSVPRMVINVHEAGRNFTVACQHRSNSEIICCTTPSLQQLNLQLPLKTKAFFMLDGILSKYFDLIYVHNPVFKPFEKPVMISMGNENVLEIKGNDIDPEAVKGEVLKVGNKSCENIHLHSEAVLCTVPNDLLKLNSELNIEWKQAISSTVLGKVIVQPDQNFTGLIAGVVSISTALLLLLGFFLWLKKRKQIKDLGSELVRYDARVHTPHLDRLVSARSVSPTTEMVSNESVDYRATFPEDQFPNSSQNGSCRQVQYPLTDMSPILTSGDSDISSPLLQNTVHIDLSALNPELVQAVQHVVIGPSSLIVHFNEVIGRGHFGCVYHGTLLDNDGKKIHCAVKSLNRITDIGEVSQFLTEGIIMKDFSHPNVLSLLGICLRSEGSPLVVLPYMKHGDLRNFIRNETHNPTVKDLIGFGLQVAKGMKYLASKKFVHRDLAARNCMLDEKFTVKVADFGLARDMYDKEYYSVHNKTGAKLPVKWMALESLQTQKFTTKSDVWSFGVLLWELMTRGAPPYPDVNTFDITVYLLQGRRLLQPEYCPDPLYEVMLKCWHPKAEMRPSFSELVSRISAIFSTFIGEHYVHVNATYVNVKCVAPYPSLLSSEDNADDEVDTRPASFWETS

MCF7 [10] = test: Cytotoxicity against human MCF7 cells assessed as reduction in cell growth incubated for 5 days by MTT assay; type: functional, cell-based; conditions: MCF7, 120 h
HeLa = test: Cytotoxicity against human HeLa cells assessed as reduction in cell growth incubated for 5 days by MTT assay; type: functional, cell-based; conditions: 120 h
A549 = test: Cytotoxicity against human A549 cells assessed as reduction in cell growth incubated for 5 days by MTT assay; type: functional, cell-based; conditions: A549, 120 h
Aurora kinase B = Aurora kinase B (Homo sapiens, UniProt Q96GD4); test: Inhibition of Aurora B (unknown origin)
Aurora kinase B, sequence (Q96GD4 whole entry): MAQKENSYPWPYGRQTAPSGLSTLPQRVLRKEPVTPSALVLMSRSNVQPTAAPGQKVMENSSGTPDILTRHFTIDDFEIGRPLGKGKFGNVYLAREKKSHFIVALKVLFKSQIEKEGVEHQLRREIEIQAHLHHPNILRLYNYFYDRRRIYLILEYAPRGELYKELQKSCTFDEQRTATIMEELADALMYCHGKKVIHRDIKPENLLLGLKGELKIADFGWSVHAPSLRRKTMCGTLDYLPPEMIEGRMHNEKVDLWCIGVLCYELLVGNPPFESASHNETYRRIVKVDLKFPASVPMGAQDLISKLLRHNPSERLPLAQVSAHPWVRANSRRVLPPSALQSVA

HCT-116 [11] = test: Cytotoxicity against human HCT-116 cells assessed as reduction in cell viability incubated for 72 hrs by MTT assay; type: functional, cell-based; conditions: HCT-116, 72 h
[12] = biological target: Epidermal growth factor receptor (Homo sapiens, UniProt P00533); test: Inhibition of EGFR (unknown origin) extracted from insect cells by ELISA method; type: cell-free, Insect cell
Epidermal growth factor receptor, sequence (P00533 whole entry): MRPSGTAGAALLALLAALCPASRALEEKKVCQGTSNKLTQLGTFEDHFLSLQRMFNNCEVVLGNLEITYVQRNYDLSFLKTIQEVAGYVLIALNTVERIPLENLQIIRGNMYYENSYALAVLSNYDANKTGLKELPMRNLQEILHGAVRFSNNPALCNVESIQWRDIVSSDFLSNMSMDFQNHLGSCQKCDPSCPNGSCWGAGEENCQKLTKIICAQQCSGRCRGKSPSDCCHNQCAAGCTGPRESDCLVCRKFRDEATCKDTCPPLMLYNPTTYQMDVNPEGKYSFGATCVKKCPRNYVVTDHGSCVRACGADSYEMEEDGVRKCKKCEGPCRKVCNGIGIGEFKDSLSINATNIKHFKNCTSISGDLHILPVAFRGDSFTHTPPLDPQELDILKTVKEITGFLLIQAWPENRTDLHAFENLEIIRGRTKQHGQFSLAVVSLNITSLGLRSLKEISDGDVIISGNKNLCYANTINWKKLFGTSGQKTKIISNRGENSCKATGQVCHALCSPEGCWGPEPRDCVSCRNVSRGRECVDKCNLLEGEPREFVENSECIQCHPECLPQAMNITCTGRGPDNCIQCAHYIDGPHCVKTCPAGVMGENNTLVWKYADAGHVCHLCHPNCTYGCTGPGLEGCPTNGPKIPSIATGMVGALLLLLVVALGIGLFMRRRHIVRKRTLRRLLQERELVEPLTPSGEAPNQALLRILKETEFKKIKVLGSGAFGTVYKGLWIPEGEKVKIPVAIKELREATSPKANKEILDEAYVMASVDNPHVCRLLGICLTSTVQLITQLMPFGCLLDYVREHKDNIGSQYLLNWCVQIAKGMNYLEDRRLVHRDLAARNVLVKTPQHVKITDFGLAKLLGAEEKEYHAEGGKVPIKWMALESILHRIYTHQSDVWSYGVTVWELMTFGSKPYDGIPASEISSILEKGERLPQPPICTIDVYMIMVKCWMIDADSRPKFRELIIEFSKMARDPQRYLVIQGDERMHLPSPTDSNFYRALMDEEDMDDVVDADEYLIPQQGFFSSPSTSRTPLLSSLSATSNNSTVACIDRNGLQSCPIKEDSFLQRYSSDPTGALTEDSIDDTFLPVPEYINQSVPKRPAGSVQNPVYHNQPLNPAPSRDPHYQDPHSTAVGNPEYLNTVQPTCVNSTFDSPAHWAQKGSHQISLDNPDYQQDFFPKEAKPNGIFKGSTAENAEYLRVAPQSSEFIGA

[13] = Antiproliferative activity against mouse Ba/F3 EML4-ALK cells assessed as inhibition of cell growth; type: functional, cell-based
[14] = Antiproliferative activity against mouse Ba/F3 EML4-ALK-G1202R-L1196M cells assessed as inhibition of cell growth; type: functional, cell-based

`CCOC(=O)c1nn(-c2ccccc2)c(=O)c2c(N)c(C#N)c(-c3cccs3)cc12` gave an IC50 [1] of 3.11 µM, an IC50 [2] of 13.6 µM and an IC50 (SNB-75) of 3.7 µg/mL (≈ 8.88 µM). For the same molecule, the IC50 [3] was 4.39 µM and the IC50 [4] was 12.5 µM.
`CCN(CC)CCNc1cc(-c2ccc(Br)cc2)nn2c(=O)c3ccccc3nc12` gave an Activity (MGC-803) of 55.9%.
In the case of `O=C1CCC(c2ccc(NC(=S)Nc3ccccc3)cc2)=NN1c1ccccc1`, the IC50 (PC-3 [5]) is reported as 7.83 µM.
`O=C(NCC1CCOCC1)c1cc(C(F)(F)F)c(N2CCOCC2)nn1` showed an IC50 (MDA-MB-231) of 0.9 µM and an IC50 (T47D) of 0.43 µM.
Molecule `Oc1ccc(/C=N/Nc2nn3c(C(F)(F)F)nnc3c3ccccc23)cc1` has an IC50 (HepG2) of 11.2 µM, an IC50 (HCT-116 [6]) of 5.7 µM and an IC50 (MCF7 [7]) of 8.04 µM. The IC50 (PC-3 [8]) was 4.25 µM.
`Cc1cc(Oc2ccc(NC(=O)c3sc(-c4ccccn4)nc3C)cc2)c2nncn2n1` gave an IC50 [9] of 0.09 µM, an IC50 (MCF7 [10]) of 1.2 µM and an IC50 (HeLa) of 2.73 µM. For the same molecule, the IC50 (A549) was 1.06 µM.
Work on `c1cc2[nH]ncc2cc1-c1cnc2ccc(OC[C@H]3CNCCO3)nn12` yielded an IC50 (Aurora kinase B) of 0.006 µM.
`COC(=O)C(CC(C)(C)C)NC(=O)CNC(=O)COc1nn(-c2ccccc2)c(=O)c2ccccc12` (stereo not drawn) gave an IC50 (HCT-116 [11]) of 1.36 µM.
Molecule `COc1cccc(C2=NN(c3ccc(-c4ccccc4)nn3)C(c3ccc(F)c(OC)c3)C2)c1` (stereo not drawn) has an IC50 [12] of 0.65 µM.
In the case of `C[C@H]1CNC(=O)c2cnn3ccc(nc23)N[C@H](C)c2cc(F)ccc2O1` [REPOTRECTINIB], the IC50 [13] is reported as 0.164 µM and the IC50 [14] is reported as 0.208 µM.
`CNC(=O)c1cc(Oc2ccc(NC(=O)Nc3ccc(Cl)c(C(F)(F)F)c3)cc2)ccn1` [SORAFENIB] showed an IC50 (PC-3 [5]) of 11.5 µM.
